These results are taken from patent EP0044527A1, “Substituted derivatives of benzyl triesters of cyclic adenosin-3',5'-phosphate, method for their preparation and pharmaceutical compositions containing them” (priority 1980, dated 1982).

Where two headings read alike, the source gives them in different places.

The subject of data set [1] is Trachealspangen-Kette des Meerschweinchens. Briefly: Relaxation of spontaneously contracted tracheal ring chain in vitro, relative to (-)isoprenaline maximum. Format: cell-based, Meerschweinchen. The settings on record: for EC50: Cavia porcellus, Dosis der halbmaximal möglichen Relaxation, Relaxation relative to (-)Isoprenalin 10^-6 Mol/l, read-out: ED50 (the source's name); for Relative Wirkungsstärke (Theophyllin = 1,00): im Vergleich zu Theophyllin. On the procedure:
Weiterhin wurde die relaxierende Wirkung erfindungsgemäßer Verbindungen auf die Trachealspangen-Kette des Meerschweinchens in vitro geprüft: • Vier parallele, aus jeweils 6 Einzelringen bestehende Trachealspangen-Ketten des Meerschweinchens (♂ und $, 430 - 600 g) im Organbad (5 ml, Krebs-Henseleit-Lösung mit Zusatz von Phentolamin (10^-5 Mol/l, 37°C, Vorspannung der Organe 2 g, Begasung mit Carbogen) entwickeln nach etwa 20 bis 30 Minuten eine stabile, tonische Spontankontraktur. An diesen dauerkontrahierten Organen kann unter isometrischen Meßbedingungen durch Applikation der Prüfsubstanz in kumulativhalblogarithmisch ansteigender Konzentration (z.B. 1x10-^6 + 2x-10^-6 + 7x10^-6 + 2x10^-5 usw. Mol/l) eine Relaxation herbeigeführt werden, wobei nach jeder Einzeldosis der Testsubstanz eine konstante Relaxations-Antwort abgewartet wird, bevor die nächst höhere Konzentration appliziert wird. Ober einen Zeitraum von 20 bis 30 Minuten wird somit eine vollständige Dosis-Wirkungskurve der Testsubstanz erhalten. Die jeweilige Relaxation wird als Prozentbruchteil der durch Gabe von (-)Isoprenalin (10^-6 Mol/1) maximal erreichbaren Relaxation ausgedrückt.
In Tabelle IV sind die ED50 (Dosis der halbmaximal möglichen Relaxation) und die relative Wirkungsstärke im Vergleich zu Theophyllin für erfindungsgemäße Verbindungen angegeben.

In data set [2] the test system is Papillarmuskeln aus dem rechten Ventrikel des Meerschweinchenherzens. Briefly: Positive inotropic effect on isolated papillary muscle, isometric force, with or without phosphodiesterase inhibitor. Format: cell-based, Meerschweinchen. To be noted: for minimal effective concentration: read-out: Schwellenkonz. On the procedure: Zur Bestimmung positiv inotroper Wirkungen wurden Papillarmuskeln aus dem rechten Ventrikel des Meerschweinchenherzens verwendet. Die adrenergen Nervenendigungen waren frei von Noradrenalin (Katecholamin-Entspeicherung durch intraperitoneale Injektion von 5 mg/kg Reserpin 24 Stunden vor Präparation der Tiere). Die Aufhängung der Muskeln erfolgte an einem induktiven Kraftaufnehmer in einer mit Sauerstoff gesättigten physiologischen Nährlösung (Volumen 50 ml). Die Kraftregistrierung erfolgte isometrisch, Kontraktionskurven wurden mittels eines Tintenschreibers aufgezeichnet und dann analysiert. Vor Zugabe der Testsubstanz wurden die Muskeln bei konstanter Reizung (Frequenz 0,2 Hz, Reizdauer 1 ms) bis zum Erreichen eines stationären Zustands ("steady state") der Kraft in der Nährlösung äquilibriert. Die Konzentration der Testsubstanz wurde dann erhöht, wenn die Kraft innerhalb von 10 min nicht weiter zunahm.
In der folgenden Tabelle II sind die Konzentrationen der einzelnen Testsubstanzen aufgetragen, bei denen der positiv inotrope Effekt gerade erkennbar war (Schwellenkonzentration) oder 50 % der maximalen Kraftzunahme erreichte (EC50). Diese Werte wurden im unteren Teil der Tabelle denen bereits bekannter Testsubstanzen gegenübergestellt. Weiterhin werden Schwellenkonzentrationen und EC50-Werte für die aufgeführten Testsubstanzen in Anwesenheit des Phosphodiesterase-Hemmstoffs 1-Methyl-3-isobutylxanthin (IBMX) (2 x 10^-5 Mol/l) angegeben. Es resultiert eine Verschiebung zu 30 - 40-fach niedrigeren Konzentrationen im Vergleich zu den Werten ohne Phophodiesterase-Hemmstoff. Ein ähnlicher Synergismus wurde auch mit Papaverin (1 x 10^-5 Mol/l) und mit Theophyllin (3 x 10-^4 Mol/1) beobachtet.

The nature of data set [3]: Partition coefficient octanol/buffer pH 7.4 (lg P). To be noted: Octanol/Puffer. Format: physicochemical. The text has this:
Weitere physikalische Daten finden sich in der folgenden Tabelle I, die auch zusätzliche beispielhaft hergestellte erfindungsgemäße Verbindungen und deren physikalische Daten enthält. Dabei bedeutet P den Verteilungskoeffizienten Octanol/Puffer, pH 7,4: P = [formula]

Data set [4] has as its system isolierte Trachealstreifen des Meerschweinchens. Put plainly: Relaxation of isolated tracheal strips (smooth muscle of the respiratory tract). The class given is cell-based, Meerschweinchen. To be noted: Cavia porcellus, read-out: Abnahme der Muskelspannung (T) in % des Kontrollwertes. The text has this:
Zur Bestimmung der erschlaffenden Wirkung von 8-CH3S-cAMP-OCH2C6H5 (Verbindung 2) auf die glatte Muskulatur des Respirationstraktes wurden isolierte Trachealstreifen des Meerschweinchens verwendet. Aufhängung der Präparate erfolgte wie bereits beschrieben. Nach Vorgabe einer geeigneten Testspannung (0,8 g) wurde die erschlaffende Wirkung der Testsubstanz in Abhängigkeit von der Konzentration getestet. Nach Auswaschen der Testsubstanz wurde der Versuch mit einem bereits bekannten cAMP-Derivat (Dibutyryl-cAMP, Vergleichsverbindung 1) wiederholt.

The test system of data set [5] is isoliertes Meerschweinchen-Myokard. The settings on record: Stand der Technik; cited from earlier work.
Setting [6] is: 50 % der maximalen Kraftzunahme, in Anwesenheit von IBMX (2 x 10^-5 Mol/l), read-out: EC50 + 20 µMol IBMX.
Setting [7] is: 50 % der maximalen Kraftzunahme, ohne IBMX, read-out: EC50.
The mark [8] stands for this setting: positiv inotroper Effekt gerade erkennbar, in Anwesenheit von IBMX (2 x 10^-5 Mol/l).
Where [9] appears, read: positiv inotroper Effekt gerade erkennbar, ohne IBMX.
Where [10] appears, read: pH 7, Diastereomerengemisch, pH 7,4, read-out: lg P Gemisch.
[11] abbreviates: pH 7, Konfig. ax, pH 7,4, read-out: lg P.
Setting [12] is: pH 7, Konfig. äq, pH 7,4, read-out: lg P.
[13] abbreviates: pH 7, Vergleichsverbindungen, pH 7,4, read-out: lg P - Werte.

Take `Cn1c(=O)c2[nH]cnc2n(C)c1=O` [Theophyllin, reference compound]: in data set [1], the EC50 came out at 130 µM and the “Relative Wirkungsstärke (Theophyllin = 1,00)” value (“Relative Wirkungsstärke” below) is reported as 1,00.
On to `Nc1ncnc2c1nc(Br)n2[C@@H]1O[C@@H]2COP(=O)(OCc3ccccc3)O[C@H]2[C@H]1O` (some centres unmarked) [Verbindung 1, 8-Brom-adenosin-3',5'-monophosphorsäurebenzylester], for which the EC50 in data set [1] was found to be 7 µM; in data set [2] (setting [6]), 1.5 µM; in data set [2] (setting [7]), 10 µM. In data set [1], the “Relative Wirkungsstärke” value is 18,5. For the same molecule, in data set [2] (setting [8]), the “Schwellenkonz. + 20 µMol IBMX” value stood at 3e-07 mol/L. In addition, in data set [2] (setting [9]), the minimal effective concentration was 3 µM. In addition, the figures for the logD in data set [3] (setting [10]), in data set [3] (setting [11]) and in data set [3] (setting [12]) were 1.58, 1.61 and 1.54, respectively.
Regarding `CSc1nc2c(N)ncnc2n1[C@@H]1O[C@@H]2COP(=O)(OCc3ccccc3)O[C@H]2[C@H]1O` (some centres unmarked) [Verbindung 2, 8-Methylthio-adenosin-3',5^1-monophosphorsäurebenzylester], in data set [2], the EC50 turned out to be 10 µM and the minimal effective concentration was determined as 3 µM. Further, the “Schwellenkonz. + 20 µMol IBMX” value in data set [2] (setting [8]) came out at 1e-07 mol/L. Besides, in data set [2] (read-out: EC50 + 20 µMol IBMX), the EC50 turned out to be 0.45 µM. Moreover, in data set [4], the inhibition at 1 µM was determined as 20%, the inhibition at 3 µM is 85%, the inhibition at 10 µM amounted to 100% and the inhibition at 30 µM came out at 100%. Moreover, the logD in data set [3] (setting [10]) came out at 1.62. Besides, the logD in data set [3] (setting [11]) is 1.55. For the same molecule, the logD in data set [3] (setting [12]) came to 1.7.
As for `Nc1ncnc2c1nc(SCc1ccccc1)n2[C@@H]1O[C@@H]2COP(=O)(OCc3ccccc3)O[C@H]2[C@H]1O` (some centres unmarked) [Verbindung 3, 8-Benzylthioadenosin-3',5'-monophosphorsäurebenzyltriester], the EC50 in data set [2] (setting [6]) was 0.6 µM; in data set [2] (setting [7]), 20 µM. For the same molecule, in data set [2] (setting [8]), the “Schwellenkonz. + 20 µMol IBMX” value worked out at 1e-07 mol/L. Further, the minimal effective concentration in data set [2] (setting [9]) is 10 µM. Also, the logD stood at 1.92 in data set [3] (setting [10]), 1.96 in data set [3] (setting [11]) and 1.88 in data set [3] (setting [12]).
Take `Nc1ncnc2c1nc([Se]Cc1ccccc1)n2[C@@H]1O[C@@H]2COP(=O)(OCc3ccccc3)O[C@H]2[C@H]1O` (some centres unmarked) [Verbindung 4, 8-Benzylseleno-adenosin-3',5'-monophosphorsäurebenzylester]: the EC50 is 10 µM in data set [2] and 0.55 µM in data set [2] (read-out: EC50 + 20 µMol IBMX). The “Schwellenkonz. + 20 µMol IBMX” value in data set [2] (setting [8]) was found to be 1e-07 mol/L. Besides, the minimal effective concentration in data set [2] is 3 µM. The results for the logD in data set [3] (setting [10]), in data set [3] (setting [11]) and in data set [3] (setting [12]) were 1.67, 1.7 and 1.64, respectively.
Regarding `Nc1ncnc2c1nc(Sc1ccc(Cl)cc1)n2[C@@H]1O[C@@H]2COP(=O)(OCc3ccccc3)O[C@H]2[C@H]1O` (some centres unmarked) [Verbindung 5, 8-(4-Chlor-phenylthio)-adenosin-3',5'-monophosphorsäurebenzylester], the EC50 in data set [1] came out at 38 µM; in data set [2] (setting [6]), 0.3 µM; in data set [2] (setting [7]), 2 µM. The “Relative Wirkungsstärke” value in data set [1] is reported as 3,4. Also, in data set [2] (setting [8]), the “Schwellenkonz. + 20 µMol IBMX” value was determined as 3e-08 mol/L. Besides, the minimal effective concentration in data set [2] (setting [9]) turned out to be 0.1 µM. Moreover, the logD in data set [3] (setting [10]) came to 2.24.
Take `Nc1ncnc2c1nc(NCc1ccccc1)n2[C@@H]1O[C@@H]2COP(=O)(OCc3ccccc3)O[C@H]2[C@H]1O` (some centres unmarked) [Verbindung 6, 8-Benzylamino-adenosin-3^1,5^1-monophosphorsäurebenzylester]: the EC50 in data set [2] (setting [6]) was 20 µM; in data set [2] (setting [7]), 40 µM. Also, in data set [2] (setting [8]), the “Schwellenkonz. + 20 µMol IBMX” value is 5e-06 mol/L. Besides, the minimal effective concentration in data set [2] (setting [9]) was 10 µM. Moreover, the logD in data set [3] (setting [10]) was 1.97.
For `CN(Cc1ccccc1)c1nc2c(N)ncnc2n1[C@@H]1O[C@@H]2COP(=O)(OCc3ccccc3)O[C@H]2[C@H]1O` (some centres unmarked) [Verbindung 7, 8-N-Benzyl-N-methylamino-adenosin-3',5'-monophosphorsäurebenzylester], the logD in data set [3] (setting [10]) is 2.29.
Regarding `CCCC(=O)Nc1ncnc2c1ncn2[C@@H]1O[C@@H]2COP(=O)(O)O[C@H]2[C@H]1OC(=O)CCC` [Vergleichs-verbindung 1, Dibutyryl-cAMP, reference compound], the EC50 in data set [2] (setting [6]) amounted to 300 µM; in data set [2] (setting [7]), 1000 µM. In addition, the “Schwellenkonz. + 20 µMol IBMX” value in data set [2] (setting [8]) was determined as 0.0001 mol/L. Also, the minimal effective concentration in data set [2] (setting [9]) was 300 µM. For the same molecule, the inhibition at 1000 µM in data set [4] (1 x 10^-3 Mol/l) stood at 75%. Besides, the inhibition at 100 µM in data set [4] (1 x 10^-4 Mol/l) was found to be 8%. For the same molecule, the inhibition at 300 µM in data set [4] (3 x 10^-4 Mol/l) is 16%. Moreover, the “inotrope Wirkung (Nebenwirkung)” value in data set [5] was “anfangs negativ inotrope Wirkungen”. For the same molecule, in data set [3] (setting [13]), the logD is -1.1.
For `Nc1ncnc2c1nc(SCc1ccccc1)n2[C@@H]1O[C@@H]2COP(=O)(O)O[C@H]2[C@H]1O` [compound 2, 8-Benzylthioadenosin-3',5'-phosphorsäure, reference compound], the results for the EC50 in data set [2] (setting [6]) and in data set [2] (setting [7]) were 150 µM and 800 µM, respectively. In addition, in data set [2] (setting [8]), the “Schwellenkonz. + 20 µMol IBMX” value came to 1e-05 mol/L. Further, the minimal effective concentration in data set [2] (setting [9]) came out at 100 µM. In addition, the logD in data set [3] (setting [13]) was -1.15.
For `Nc1ncnc2c1ncn2[C@@H]1O[C@@H]2COP(=O)(OCc3ccccc3)O[C@H]2[C@H]1O` (some centres unmarked) [compound 3, Adenosin-3',5'-phosphorsäurebenzylester, reference compound], the EC50 amounted to 60 µM in data set [2] (setting [6]) and 250 µM in data set [2] (setting [7]). Also, the “Schwellenkonz. + 20 µMol IBMX” value in data set [2] (setting [8]) is 1e-05 mol/L. The minimal effective concentration in data set [2] (setting [9]) worked out at 100 µM. Also, in data set [3] (setting [13]), the logD stood at 1.1.
